The values that follow come from patent publication US10494343B2, “Organic compound, near-infrared fluorescent constant medium containing same, and method for nano-granulating constant medium” (COLLEGE OF MEDICINE POCHON CHA UNIV. INDUSTRY—ACADEMIC …, priority 2015, dated 2019).

One data set in a line: Absorption/emission wavelength of the compounds (Table 1). It counts as physicochemical. The note with it: DMSO.
In the case of `CCN1/C(=C/C=C2\CC(C(C)(C)C)CC(/C=C/C3=[N+](CC)c4ccc5cc(OC)ccc5c4C3(C)C)=C2Sc2ccc(C(=O)NCCN)cc2)C(C)(C)c2c1ccc1cc(OC)ccc21.[I-]` (stereo not shown) [Compound L, 2-((E)-2-((E)-2-(4-(2-aminoethylcarbamoyl)phenylthio)-5-tert-butyl-3-((E)-2-(3-ethyl-7-methoxy-1,1-dimethyl-1H-benzo[e]indol-2(3H)-ylidene)ethylidene)cyclohex-1-enyl)vinyl)-3-ethyl-7-methoxy-1,1-dimethyl-1H-benzo[e]indolium iodide], the Absorption wavelength came to 857 nm and the Emission wavelength is recorded as 896 nm.
The corresponding values for `CCN1/C(=C/C=C2\CC(C(C)(C)C(=O)OC)CC(/C=C/C3=[N+](CC)c4ccc5cc(OC)ccc5c4C3(C)C)=C2Sc2ccc(C(=O)NCCN)cc2)C(C)(C)c2c1ccc1cc(OC)ccc21.[I-]` (stereo not shown) [Compound I, 2-((E)-2-((E)-2-(4-(2-aminoethylcarbamoyl)phenylthio)-3-((E)-2-(3-ethyl-7-methoxy-1,1-dimethyl-1H-benzo[e]indol-2(3H)-ylidene)ethylidene)-5-(1-methoxy-2-methyl-1-oxopropan-2-yl)cyclohex-1-enyl)vinyl)-3-ethyl-7-methoxy-1,1-dimethyl-1H-benzo[e]indolium iodide] are 857 nm and 889 nm.
For `CCN1/C(=C/C=C2\CC(C(C)(C)C(=O)OC)CC(/C=C/C3=[N+](CC)c4ccc5cc(OC)ccc5c4C3(C)C)=C2Sc2ccc(C(=O)[O-])cc2)C(C)(C)c2c1ccc1cc(OC)ccc21` (stereo not shown) [Compound H, 4-((E)-6-((E)-2-(3-ethyl-7-methoxy-1,1-dimethyl-1H-benzo[e]indol-2(3H)-ylidene)ethylidene)-2-((E)-2-(3-ethyl-7-methoxy-1,1-dimethyl-1H-benzo[e]indolium-2-yl)vinyl)-4-(1-methoxy-2-methyl-1-oxopropan-2-yl)cyclohex-1-enylthio)benzoate] the same measures were 857 nm and 900 nm.
Take `CCN1/C(=C/C=C2\CC(C(C)(C)C(=O)OC)CC(/C=C/C3=[N+](CC)c4ccc5cc(S(=O)(=O)[O-])ccc5c4C3(C)C)=C2Sc2ccc(C(=O)O)cc2)C(C)(C)c2c1ccc1cc(S(=O)(=O)O)ccc21` (stereo not shown) [Compound G, 2-((E)-2-((E)-2-(4-carboxyphenylthio)-3-((E)-2-(3-ethyl-1,1-dimethyl-7-sulfo-1H-benzo[e]indol-2(3H)-ylidene)ethylidene)-5-(1-methoxy-2-methyl-1-oxopropan-2-yl)cyclohex-1-enyl)vinyl)-3-ethyl-1,1-dimethyl-1H-benzo[e]indolium-7-sulfonate]: the Absorption wavelength is recorded as 849 nm and the Emission wavelength turned out to be 883 nm.
The corresponding values for `CCN1/C(=C/C=C2\CC(C(C)(C)C(=O)OC)CC(/C=C/C3=[N+](CC)c4ccc5cc(S(=O)(=O)O)ccc5c4C3(C)C)=C2Cl)C(C)(C)c2c1ccc1cc(S(=O)(=O)O)ccc21` (stereo not shown) [Compound D, 2-((E)-2-((E)-2-chloro-3-((E)-2-(3-ethyl-1,1-dimethyl-7-sulfo-1H-benzo[e]indol-2(3H)-ylidene)ethylidene)-5-(1-methoxy-2-methyl-1-oxopropan-2-yl)cyclohex-1-enyl)vinyl)-3-ethyl-1,1-dimethyl-1H-benzo[e]indolium-7-sulfonate] are 833 nm and 861 nm.
For `CCN1/C(=C/C=C2\CC(C(C)(C)C(=O)OC)CC(/C=C/C3=[N+](CC)c4ccc5cc(Br)ccc5c4C3(C)C)=C2Cl)C(C)(C)c2c1ccc1cc(Br)ccc21.[I-]` (stereo not shown) [Compound E, 7-bromo-2-((E)-2-((E)-3-((E)-2-(7-bromo-3-ethyl-1,1-dimethyl-1H-benzo[e]indol-2(3H)-ylidene)ethylidene)-2-chloro-5-(1-methoxy-2-methyl-1-oxopropan-2-yl)cyclohex-1-enyl)vinyl)-3-ethyl-1,1-dimethyl-1H-benzo[e]indolium iodide] the same measures were 833 nm and 865 nm.
The corresponding values for `CCN1/C(=C/C=C2\CC(C(C)(C)C(=O)OC)CC(/C=C/C3=[N+](CC)c4ccc5cc(OC)ccc5c4C3(C)C)=C2Cl)C(C)(C)c2c1ccc1cc(OC)ccc21.[I-]` (stereo not shown) [Compound F, 2-((E)-2-((E)-2-chloro-3-((E)-2-(3-ethyl-7-methoxy-1,1-dimethyl-1H-benzo[e]indol-2(3H)-ylidene)ethylidene)-5-(1-methoxy-2-methyl-1-oxopropan-2-yl)cyclohex-1-enyl)vinyl)-3-ethyl-7-methoxy-1,1-dimethyl-1H-benzo[e]indolium iodide] are 843 nm and 881 nm.
“3-ethyl-2-((E)-2-((E)-3-((E)-2-(3-ethyl-7-methoxy-1,1-dimethyl-1H-benzo[e]indol-2(3H)-ylidene)ethylidene)-2-(4-(2-isothiocyantoethylcarbamoyl)phenylthio)-5-(1-methoxy-2-methyl-1-oxopropan-2-yl)cyclohex-1-enyl) vinyl)-7-methoxy-1,1-dimethyl-1H-benzo[e]indolium iodide [Compound J]” had an Absorption wavelength of 856 nm and an Emission wavelength of 905 nm.
`CCN1/C(=C/C=C2\CC(c3ccc(C(=O)OC)cc3)CC(/C=C/C3=[N+](CC)c4ccc5cc(S(=O)(=O)O)ccc5c4C3(C)C)=C2Cl)C(C)(C)c2c1ccc1cc(S(=O)(=O)O)ccc21` (stereo not shown) [Compound A, 2-((E)-2-((E)-2-chloro-3-((E)-2-(3-ethyl-1,1-dimethyl-7-sulfo-1H-benzo[e]indo-1-2(3H)-ylidene)ethylidene)-5-(4-(methoxycarbonyl)phenyl)cyclohex-1-enyl)vinyl)-3-ethyl-1,1-dimethyl-1H-benzo[e]indolium-7-sulfonate]: the Absorption wavelength is recorded as 833 nm and the Emission wavelength is 865 nm.
For `CCN1/C(=C/C=C2\CC(c3ccc(C(=O)OC)cc3)CC(/C=C/C3=[N+](CC)c4ccc5cc(OC)ccc5c4C3(C)C)=C2Cl)C(C)(C)c2c1ccc1cc(OC)ccc21.[I-]` (stereo not shown) [C, 2-((E)-2-((E)-2-chloro-3-((E)-2-(3-ethyl-7-methoxy-1,1-dimethyl-1H-benzo[e]indol-2(3H)-ylidene)ethylidene)-5-(4-(methoxycarbonyl)phenyl)cyclohex-1-enyl)vinyl)-3-ethyl-7-methoxy-1,1-dimethyl-1H-benzo[e]indolium iodide] the same measures were 843 nm and 876 nm.
For `CCN1/C(=C/C=C2\CCCC(/C=C/C3=[N+](CC)c4ccc5cc(OC)ccc5c4C3(C)C)=C2Sc2ccc(C(=O)NCCN)cc2)C(C)(C)c2c1ccc1cc(OC)ccc21.[I-]` [Compound K, 2-((E)-2-((E)-2-(4-(2-aminoethylcarbamoyl)phenylthio)-3-((E)-2-(3-ethyl-7-methoxy-1,1-dimethyl-1H-benzo[e]indol-2(3H)-ylidene)ethylidene)cyclohex-1-enyl)vinyl)-3-ethyl-7-methoxy-1,1-dimethyl-1H-benzo[e]indolium iodide] the same measures were 857 nm and 901 nm.
The corresponding values for `CCN1/C(=C/C=C2\CC(c3ccc(C(=O)OC)cc3)CC(/C=C/C3=[N+](CC)c4ccc5cc(Br)ccc5c4C3(C)C)=C2Cl)C(C)(C)c2c1ccc1cc(Br)ccc21.[I-]` (stereo not shown) [Compound B, 7-bromo-2-((E)-2-((E)-3-((E)-2-(7-bromo-3-ethyl-1,1-dimethyl-1H-benzo[e]indol-2(3H)-ylidene)ethylidene)-2-chloro-5-(4-(methoxycarbonyl)phenyl)cyclohex-1-enyl)vinyl)-3-ethyl-1,1-dimethyl-1H-benzo[e]indolium iodide] are 831 nm and 863 nm.

A short description of another data set: Test Example 1: optical properties of contrast medium according to Preparation Example 2. The settings on record: conventional contrast medium, solvent not stated. It counts as physicochemical. Set-up: unit not given here. The protocol:
Contrast media were prepared by dissolving compound H per se according to Example 8 in various organic solvents without manufacturing core-shell nanoparticles.
Test Example 1—Evaluation on Optical Properties of Contrast Medium According to Preparation Example 2
The absorption intensity, absorption wavelength, emission wavelength, and quantum yield (ϕf) of the contrast media prepared in Preparation Example 2 are shown in the Table 2.
Regarding `CC1(C)C(/C=C/C=C/C=C/C=C2\N(CCCCS(=O)(=O)O)c3ccc4ccccc4c3C2(C)C)=[N+](CCCCS(=O)(=O)[O-])c2ccc3ccccc3c21` [indocyanine green], the “quantum efficiency (χf)” value is recorded as 2.58.
